According to ChEMBL document CHEMBL5518188, “Discovery of 4-amino-1,6-dihydro-7H-pyrrolo[2,3-d]pyridazin-7-one derivatives as potential receptor-interacting serine/threonine-protein kinase 1 (RIPK1) inhibitors” (Eur J Med Chem, 2024):
Calls of active or inactive are those of the source. The rule behind the calls is not given here.

Tests used:
[1] = Metabolic stability in cryopreserved human liver microsome assessed as half life; assay type: ADME; conditions: cryopreserved liver microsomes
[2] = Apparent volume of distribution in BALB/c mouse at 10 mg/kg, iv; assay type: ADME, organism-based; conditions: in vivo, read-out: Vz
[3] = Tmax in BALB/c mouse at 10 mg/kg, po; assay type: ADME, organism-based; conditions: in vivo
[4] = Half life in BALB/c mouse at 10 mg/kg, po; assay type: ADME, organism-based; conditions: in vivo
[5] = Clearance in BALB/c mouse at 10 mg/kg, po; assay type: ADME, organism-based; conditions: in vivo, po, 10 mg/kg
[6] = AUC (0 to t) in BALB/c mouse at 10 mg/kg, iv; assay type: ADME, organism-based; conditions: in vivo, iv, 10 mg/kg
[7] = Apparent volume of distribution in BALB/c mouse at 10 mg/kg, po; assay type: ADME, organism-based; conditions: in vivo
[8] = Tmax in BALB/c mouse at 10 mg/kg, iv; assay type: ADME, organism-based; conditions: in vivo
[9] = Half life in BALB/c mouse at 10 mg/kg, iv; assay type: ADME, organism-based; conditions: in vivo
[10] = Cmax in BALB/c mouse at 10 mg/kg, po; assay type: ADME, organism-based; conditions: in vivo
[11] = tested on: L929; test: Anti-necroptosis activity against TSZ-induced mouse L929 cells; assay type: functional, cell-based
[12] = Clearance in BALB/c mouse at 10 mg/kg, iv; assay type: ADME, organism-based; conditions: in vivo
[13] = Oral bioavailability in BALB/c mouse at 10 mg/kg; assay type: ADME, organism-based; conditions: in vivo; for bioavailability: BALB/c
[14] = tested on: U-937; test: Anti-necroptosis activity against TSZ-induced human U-937 cells; assay type: functional, cell-based
[15] = tested on: HT-29; test: Anti-necroptosis activity against TSZ-induced human HT-29 cells; assay type: functional, cell-based
[16] = Cmax in BALB/c mouse at 10 mg/kg, iv; assay type: ADME, organism-based; conditions: in vivo
[17] = molecular target: T1, Receptor-interacting serine/threonine-protein kinase 1 (Homo sapiens, UniProt Q13546); test: Inhibition of RIPK1 (unknown origin) in presence of ATP by kinaseProfiler assay
T1 sequence (Q13546 whole entry): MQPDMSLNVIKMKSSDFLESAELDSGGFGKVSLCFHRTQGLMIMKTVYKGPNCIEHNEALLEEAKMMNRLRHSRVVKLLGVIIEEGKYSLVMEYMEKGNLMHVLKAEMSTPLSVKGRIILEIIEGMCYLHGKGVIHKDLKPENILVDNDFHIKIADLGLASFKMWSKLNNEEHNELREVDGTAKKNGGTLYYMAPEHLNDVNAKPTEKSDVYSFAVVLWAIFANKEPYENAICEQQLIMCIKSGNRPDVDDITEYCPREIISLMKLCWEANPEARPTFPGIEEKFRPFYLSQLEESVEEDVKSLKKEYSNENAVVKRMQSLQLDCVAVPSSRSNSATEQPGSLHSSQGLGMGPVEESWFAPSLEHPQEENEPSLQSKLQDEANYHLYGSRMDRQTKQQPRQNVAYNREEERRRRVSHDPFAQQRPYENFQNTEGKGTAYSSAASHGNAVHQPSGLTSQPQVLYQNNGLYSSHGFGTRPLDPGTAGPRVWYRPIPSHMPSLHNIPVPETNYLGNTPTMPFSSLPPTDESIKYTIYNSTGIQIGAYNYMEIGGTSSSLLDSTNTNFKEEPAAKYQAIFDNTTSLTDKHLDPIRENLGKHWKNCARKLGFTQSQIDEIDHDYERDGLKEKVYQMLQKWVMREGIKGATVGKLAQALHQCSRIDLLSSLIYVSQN

[18] = AUC (0 to t) in BALB/c mouse at 10 mg/kg, po; assay type: ADME, organism-based; conditions: in vivo, po, 10 mg/kg
[19] = tested on: Mus musculus; test: In vivo anti-necrotptic activity in SIRS mouse model assessed as protection from body temperature loss at 10 mg/kg, po measured upto 6 hrs; assay type: functional, organism-based
[20] = Cmax in BALB/c mouse at 5 mg/kg, iv; assay type: ADME, organism-based; conditions: in vivo
[21] = AUC (0 to t) in BALB/c mouse at 5 mg/kg, iv; assay type: ADME, organism-based; conditions: in vivo
[22] = Tmax in BALB/c mouse at 5 mg/kg, iv; assay type: ADME, organism-based; conditions: in vivo
[23] = Half life in BALB/c mouse at 5 mg/kg, iv; assay type: ADME, organism-based; conditions: in vivo

| Structure (SMILES) | half-life [1] [h] | EC50 [11] [nM] | EC50 [14] [nM] | EC50 [15] [nM] | IC50 [17] [nM] | also measured |
| --- | --- | --- | --- | --- | --- | --- |
| Nc1n[nH]c(=O)c2c1c(-c1ccc3c(c1)CCN3C(=O)Cc1cccc(C(F)(F)F)c1)cn2CC1CC1 | 1.99 | 1.17 | 1.88 | 6.01 | 125 | Vd [2]: 91 L/kg; Tmax [3]: 0.14 h; t1/2 ([4]; po, 10 mg/kg): 20.99 h; CL [5]: 48.7 mL/min/kg; AUCt [6]: 2048.56 ng·h/mL; Vz [7]: 2.8 L/kg; Tmax [8]: 2 h; half-life [9]: 21 h; Cmax [10]: 45.5 ng/mL; clearance [12]: 48.7 mL/min/kg; F ([13]; po, 10 mg/kg): 22.49%; Cmax [16]: 45.5 ng/mL; AUCt [18]: 2048.56 ng·h/mL |
| CN1C(=O)[C@@H](NC(=O)c2n[nH]c(Cc3ccccc3)n2)COc2ccccc21 [GSK2982772] | – | 1260 | 1.27 | 2.78 | – | Activity [19]: Active |
| Nc1n[nH]c(=O)c2c1c(-c1ccc3c(c1)CCN3C(=O)Cc1cccc(OC(F)(F)F)c1)nn2CC1CC1 | 0.813 | 0.48 | 3.89 | 2.61 | 110 | Tmax [3]: 1 h; half-life ([4]; BALB/c): 2.58 h; Cmax [20]: 3290 ng/mL; Vz [7]: 6007.49 L/kg; AUC(0-t) [21]: 6930 ng·h/mL; Tmax [22]: 8.4 min; Cmax [10]: 1090 ng/mL; bioavailability [13]: 44.1%; half-life [23]: 11.7 h; AUCt [18]: 6121.97 ng·h/mL |
| CCCn1nc(-c2ccc3c(c2)CCN3C(=O)Cc2cccc(OC(F)(F)F)c2)c2c(N)n[nH]c(=O)c21 | 0.351 | 1.42 | 0.46 | 6.84 | 120 | – |
| Nc1n[nH]c(=O)c2c1c(-c1ccc3c(c1)CCN3C(=O)Cc1cccc(OC(F)(F)F)c1)nn2CC(F)F | 0.532 | 9.84 | 14.6 | 16 | 84.5 | – |
| CCn1cc(-c2ccc3c(c2)CCN3C(=O)Cc2cccc(OC(F)(F)F)c2)c2c(N)n[nH]c(=O)c21 | 1.11 | 5.99 | 1.74 | 5.45 | 60.5 | – |
| CC1(Cn2cc(-c3ccc4c(c3)CCN4C(=O)Cc3cccc(C(F)(F)F)c3)c3c(N)n[nH]c(=O)c32)COC1 | 1.43 | 1.58 | 22 | 33 | 48.7 | – |
| Nc1n[nH]c(=O)c2c1c(-c1ccc3c(c1)CCN3C(=O)Cc1cccc(OC(F)(F)F)c1)cn2CC1CC1 | > 2 | 1.62 | 3.68 | 5.78 | 109 | – |
| CCn1nc(-c2ccc3c(c2)CCN3C(=O)Cc2cccc(OC(F)(F)F)c2)c2c(N)n[nH]c(=O)c21 | > 2 | 9.79 | 4.45 | 16.1 | 42.7 | bioavailability [13]: 4.36% |
| COCCn1nc(-c2ccc3c(c2)CCN3C(=O)Cc2cccc(OC(F)(F)F)c2)c2c(N)n[nH]c(=O)c21 | 0.296 | 1.08 | 8.29 | 4.45 | 80.5 | – |
